Results reported in patent publication US8796317B2, “Use of 7-nitro-2,1,3-benzoxadiazole derivatives for anticancer therapy” (Universita Degli Studi di Roma “Tor Vergata”, priority 2003, dated 2014).
“And” between values parts separate entries of the source, which are not always exact repeats. Identical values can stand only once. Blank lines part the entries; values can stand above or below the compound they belong to.

Legend:
[1] = test system: K562 (human myeloid leukaemia); test: SRB cell growth test; assay type: cell-based; conditions: K562, read-out: Activity trials on cell lines - IC50 (50% inhibition of cell growth), K562, 48 hours
Protocol: (§1) Four cancer cell lines were used for testing the anticancer activity of the derivatives of 7-nitro-2,1,3-benzoxadiazole: K562 (human myeloid leukaemia), HepG2 (human hepatic carcinoma), CEM1.3 (human T-lymphoblastic leukaemia) and GLC-4 (human small cell lung carcinoma).
(§2) The human cancer cell lines were maintained in RPMI 1640 (containing L-glutamine 2 mM and 0.1 g/l of penicillin-G/streptomycin sulphate) enriched with 5% foetal bovine serum (FBS), at 37° C., 5% CO2 and 98% humidity.
(§3) The cells were placed in 96-well plates at a density of 15,000 cells per well, in a culture medium volume of 100 μl. After 24 hours, each of the 7-nitro-2,1,3-benzoxadiazole derivatives to be assayed, at the required concentration, was added to the culture medium. At the same time, some control trials were arranged by adding to the wells the solvent in which the compound was dissolved (% v/v of DMSO in PBS). All measurements were carried out in quadruplicate.
(§4) The cells were incubated for 48 hours at 37° C., at 5% CO2.
(§5) In order to obtain a dose-response profile for each derivative of 7-nitro-2,1,3-benzoxadiazole under study, an evaluation process based on the method described by Shekan et al (J. Natl. Cancer. Inst. 82, (1990), 1107-1112) was used.
(§6) After incubation, the percentage cell growth was evaluated by an insitu cell fixation procedure, followed by an SRB test using a colouring procedure with sulphorodamine B capable of specifically binding to proteins. The coloured product was then solubilised and quantified spectrophotometrically in order to determine the growth of the cells treated with the compound under study with respect to the ones treated with the solvent only.

[2] = test system: CEM1.3 (human T-lymphoblastic leukaemia); test: SRB cell growth test; assay type: cell-based; conditions: CEM13, read-out: Activity trials on cell lines - IC50 (50% inhibition of cell growth), CEM1.3, 48 hours
Protocol: as §1, §2, §3, §4, §5, §6

[3] = test system: GLC-4 (human small cell lung carcinoma); test: SRB cell growth test; assay type: cell-based; conditions: GLC4, read-out: Activity trials on cell lines - IC50 (50% inhibition of cell growth), GLC-4, 48 hours
Protocol: as §1, §2, §3, §4, §5, §6

[4] = test system: HepG2 (human hepatic carcinoma); test: SRB cell growth test; assay type: cell-based; conditions: HepG2, read-out: Activity trials on cell lines - IC50 (50% inhibition of cell growth), HepG2, 48 hours
Protocol: as §1, §2, §3, §4, §5, §6

GST P1-1 = molecular target: T1, GST P1-1 (Homo sapiens, UniProt P09211); test: Inhibition of GST activity (CDNB/GSH spectrophotometric assay); assay type: biochemical; conditions: for IC50: 25° C., pH 6.5, 1 mM glutathione, 1 mM CDNB
T1 construct: made in house; host or cells: Escherichia coli
T1 sequence (P09211 2-210 limits assumed): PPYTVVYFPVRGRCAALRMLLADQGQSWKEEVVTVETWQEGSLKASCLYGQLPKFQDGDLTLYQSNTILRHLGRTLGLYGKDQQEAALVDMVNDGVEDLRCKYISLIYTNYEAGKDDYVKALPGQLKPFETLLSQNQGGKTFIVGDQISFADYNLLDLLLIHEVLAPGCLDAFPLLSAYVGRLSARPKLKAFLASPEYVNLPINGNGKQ
Protocol: (§7) GSTA1-1, M2-2 and P1-1, expressed in Escherichia coli, were purified by using a chromatographic passage on an affinity resin capable of selectively retaining the GST (J. Biol. Chem. 270, (1995), 1249-1253).
(§8) GST activity was tested at 25° C. with a 0.1 M potassium phosphate buffer, at pH 6.5, in the presence of the substrates, i.e. of the glutathione (Sigma-Aldrich, Fine Chemicals) in a concentration of 1 mM, and of 1-chloro-2,4-dinitrobenzene (CDNB) (Sigma-Aldrich, Fine Chemicals) 1 mM (Methods Enzymol. 77, 1981, 398-405).
(§9) Enzymatic activity was assessed spectrophotometrically at 340 nm, a wavelength at which it absorbs the reaction product S-(2,4-dinitrobenzene)glutathione (GS-DNB) (6=9.6 mM^−1 cm^−1).

GST A1-1 = molecular target: T2, GST A1-1 (Homo sapiens, UniProt P08263); test: as above; assay type: biochemical; conditions: 25° C., pH 6.5, 1 mM glutathione, 1 mM CDNB
T2 construct: made in house; host or cells: Escherichia coli
T2 sequence (P08263 1-222): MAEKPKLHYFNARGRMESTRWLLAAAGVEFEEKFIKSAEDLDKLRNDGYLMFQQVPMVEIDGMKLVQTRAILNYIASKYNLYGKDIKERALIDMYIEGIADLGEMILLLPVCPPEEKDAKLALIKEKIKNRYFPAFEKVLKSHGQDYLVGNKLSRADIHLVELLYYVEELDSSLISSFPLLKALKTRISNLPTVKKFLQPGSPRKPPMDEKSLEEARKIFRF
Protocol: (§10) These compounds were tested as inhibitors of the activity of the isoenzymes GSTP1-1, GSTA1-1 and GSTM2-2 belonging to the most representative GST classes: the Pi, Mu and Alpha classes.
as §7, §8, §9

GST M2-2 = molecular target: T3, GST M2-2 (Homo sapiens, UniProt P28161); test: as above; assay type: biochemical; conditions: 25° C., pH 6.5, 1 mM glutathione, 1 mM CDNB
T3 construct: made in house; host or cells: Escherichia coli
T3 sequence (P28161 1-218): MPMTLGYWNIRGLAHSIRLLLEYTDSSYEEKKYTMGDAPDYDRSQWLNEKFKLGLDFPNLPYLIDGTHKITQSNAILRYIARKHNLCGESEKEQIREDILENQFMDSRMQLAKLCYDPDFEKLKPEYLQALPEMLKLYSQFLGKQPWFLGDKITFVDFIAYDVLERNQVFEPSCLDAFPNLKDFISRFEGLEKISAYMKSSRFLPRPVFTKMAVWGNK
Protocol: as §10, §7, §8, §9

[5] = molecular target: T4, GST-JNK complex in K562 cells (Homo sapiens, UniProt P09211); test: Immunoprecipitation with anti-JNK antibody and Western blot; assay type: cell-based; conditions: K562 lysates, 10 μM; slightly increases only after 3 h
T4 construct: K562 cell lysates were immunoprecipitated with an anti-JNK antybody and used for Western blot analysis; endogenous in cells; host or cells: K562
T4 sequence (P09211 2-210 limits assumed, one chain of several): as the sequence (P09211 2-210 limits assumed) above
Protocol: For the immunoprecipitation analysis, cell pellets were resuspended in lysis buffer, and cells were disrupted by 10-s sonication. Lysates were then centrifuged at 14,000 g for 15 min at 4° C. Proteins were incubated in lysis buffer with anti-JNK antibody for 2 h at 4° C. Immunocomplexes were absorbed with protein A-Sepharose for 30 min at 4° C. After three washes with lysis buffer, immune pellets were boiled in SDS sample buffer. Proteins were loaded on 15% SDS-polyacrylamide gel and transferred to nitrocellulose. GST, JNK and phospho-JNK were detected by specific antibody.
To assess if cell treatment with derivative No. 2 affects the amount of GST-JNK complex, K562 cell lysates were immunoprecipitated with an anti-JNK antybody and used for Western blot analysis.

CEM1.3 cells = test: Flow cytometric analysis of apoptosis (Annexin V-FITC / PI); assay type: cell-based, human; conditions: CEM1.3, 2 μM
Protocol: (§11) Cells were washed in PBS, and stained with propidium iodide and with the impermeant dye Annexin V-FITC (Bender MedSystems, Vienna, Austria). The stained cells were analysed using a FACScan Flow Cytometer (Becton-Dickinson, CA). Data were recorded and statistically analysed by WinMDI version 2.8 software. Simultaneous staining of cells with Annexin V-FITC and PI allows the discrimination of intact cells, early apoptotic and late apoptotic or necrotic cells.

K562 cells = test: as above; assay type: cell-based, human; conditions: K562, 10 μM
Protocol: as §11

caspase-3 in K562 cells = test: Caspase-3 activation (Ac-DEVD-AFC) in cell lysates; assay type: cell-based, human; conditions: K562, 10 μM, after 24 h
Protocol: Pellets of cells at different times of incubation with 7-nitro-benzofurazan derivative No. 2 (10 μM and 2 μM with K562 and CEM1.3 respectively), were resuspended with lysis buffer (100 mM Hepes, pH 7.6, 0.1% Chaps, 1 mM EDTA, 1 mM Phenyl-methyl-sulphonyl-fluoride and 10 mM DTT) for 20 min on ice and cells were disrupted by 10-s sonication. Lysates, after centrifugation, were utilized to measure the caspase-3 activity. The substrate utilized was the model fluorescent peptide Ac-DEVD-AFC (Acetyl-Asp-GluVal-Asp-7-amino-4-trifluoromethyl coumarin) which was proteolyzed by caspase-3 resulting in a fluorescence emission at 505 nm (excitation at 400 nm). As control, lysates were incubated 30 min at 30° C. with the caspase inhibitor DEVD-CHO before evaluation of enzyme activity. Caspase activity was expressed as fluorescence change observed per minute per number of cells.

[6] = test system: K562, HepG2, CEM1.3 and GLC-4 cancer cell lines; test: Cytotoxicity, viability and cell penetration on all the tested cancer cell lines; assay type: cell-based, human
Protocol: as §1, §2
as §3, with “quadruplicate. […]” for “quadruplicate.”
as §6

[7] = test system: CEMVBL100, leukaemia line resistant to vinblastine (hyperexpressing P-glycoprotein); test: Cytotoxicity of vinblastine on resistant cells with and without the derivative (SRB test); assay type: cell-based; conditions: CEM/VBL100, 48 h
Protocol: In cancer cells the resistance to many anticancer drugs is often associated with a high expression of P-glycoprotein, a membrane protein belonging to the overall family of ABC transporters (ATP-binding cassette).
The cells were placed in 96-well strips at a density of 15,000 cells per well, in a volume of culture medium of 100 μl. After 24 hours, a suitable concentration of between 25 nM and 1000 nM of vinblastine was added to the culture medium. […] At the same time, some control trials were arranged by adding to the wells the solvent in which the compound was dissolved (% v/v of DMSO in PBS). All measurements were carried out in quadruplicate. After 48 hours of incubation, a dosage-response profile was obtained by using the SRB test (J. Natl. Cancer. Inst. 82, (1990), 1107-1112, loc. cit.).

Structure (SMILES): O=[N+]([O-])c1ccc(SCCCCCCO)c2nonc12 [(2), 6-(7-nitro-2,1,3-benzoxadiazol-4-ylthio)hexanol]
IC50 [1]: 0.8 µM
IC50 [2]: 0.1 µM
IC50 [3]: 1.4 µM
IC50 [4]: 2.9 µM
amount of GSTP1-1 that co-precipitates with JNK [5]: rapidly decreased
IC50 (GST A1-1): 25 µM
IC50 (GST M2-2): 0.01 µM
apoptosis (CEM1.3 cells; 12 h treatment): 34%
apoptosis (CEM1.3 cells; after 24 h): 47%
apoptosis (K562 cells; 12 h treatment): 30%
apoptosis (K562 cells; after 24 h): 41%
caspase-3 activity (caspase-3 in K562 cells): strong increase of caspase-3

Structure (SMILES): O=[N+]([O-])c1ccc(NCCCCCCO)c2nonc12 [(6), 6-(7-nitro-2,1,3-benzoxadiazol-4-ylamino)hexanol]
viability of all the tested cancer cell lines ([6]; 48 hours of incubation with 50 μM): still viable
penetration into the cells (intracellular fluorescence) ([6]; after 6 hours of incubation, various concentrations): easily penetrate the cells
IC50 [1]: > 50 µM
IC50 [2]: > 50 µM
IC50 [3]: > 50 µM
IC50 [4]: > 50 µM
inhibition activity with regard to the enzymatic isoform GSTP1-1 (in words) (GST P1-1): no inhibition activity
IC50 (GST A1-1): > 100 µM
IC50 (GST M2-2): ~2 µM and 1.8 µM

Structure (SMILES): CC[C@]1(O)C[C@@H]2CN(CCc3c([nH]c4ccccc34)[C@@](C(=O)OC)(c3cc4c(cc3OC)N(C)[C@H]3[C@@](O)(C(=O)OC)[C@H](OC(C)=O)[C@]5(CC)C=CCN6CC[C@]43[C@@H]65)C2)C1 [vinblastine]
IC50 ([7]; CEM VBL100, 7-nitro-2,1,3-benzoxadiazole derivative absent): 0.34 µM
IC50 ([7]; CEM VBL100, with 0.5 μM 6-(7-nitro-2,1,3-benzoxadiazol-4-ylthio)hexanol): 0.05 µM

Results, then the compound that gave them:

IC50 [1]: 2.2 µM
IC50 [2]: 0.2 µM
IC50 [3]: 3.2 µM
IC50 [4]: 3.2 µM
IC50 (GST P1-1): 2 µM
IC50 (GST A1-1): 56 µM
IC50 (GST M2-2): 0.03 µM
Structure (SMILES): O=[N+]([O-])c1ccc(SCCCCO)c2nonc12 [(1), 4-(7-nitro-2,1,3-benzoxadiazol-4-ylthio)butanol]

IC50 [1]: 8.8 µM
IC50 [2]: 3.9 µM
IC50 [3]: 10 µM
IC50 [4]: 16 µM
IC50 (GST P1-1): 6.3 µM
IC50 (GST A1-1): 11 µM
IC50 (GST M2-2): 0.01 µM
Structure (SMILES): O=[N+]([O-])c1ccc(Sc2ncc[nH]2)c2nonc12 [(3), 2-(7-nitro-2,1,3-benzoxadiazol-4-ylthio)imidazole]

IC50 [1]: 6.4 µM
IC50 [2]: 2.4 µM
IC50 [3]: 7.5 µM
IC50 [4]: 16.3 µM
IC50 (GST P1-1): 0.7 µM
IC50 (GST A1-1): 6.5 µM
IC50 (GST M2-2): 0.03 µM
Structure (SMILES): O=[N+]([O-])c1ccc(Sc2ccc(O)cc2)c2nonc12 [(4), 4-(7-nitro-2,1,3-benzoxadiazol-4-ylthio)phenol]

IC50 [1]: 38 µM
IC50 [2]: 6.5 µM
IC50 [3]: 16.5 µM
IC50 [4]: 25 µM
IC50 (GST P1-1): 5.74 µM
IC50 (GST A1-1): 66 µM
IC50 (GST M2-2): 0.31 µM
Structure (SMILES): O=C(O)CCSc1ccc([N+](=O)[O-])c2nonc12 [(5), 3-(7-nitro-2,1,3-benzoxadiazol-4-ylthio)propionic acid]
